Test results: publication PMC8493129, “Design and Synthesis of New Quinoxaline Derivatives as Potential Histone Deacetylase Inhibitors Targeting Hepatocellular Carcinoma: In Silico, In Vitro, and SAR Studies” (Frontiers in Chemistry, 2021)

What was measured:
[1] = tested on: HuH-7 liver cancer cell line; assay: Anti-proliferative activity (MTT / SRB assay), HuH-7; format: cell-based, human; settings: Homo sapiens, mean of three separate experiments
Experimental: (§1) The new quinoxaline derivatives of the five series: 6, 7, 8, 9, and 10 were evaluated for their potential anti-proliferative activity against two liver cancer cell lines (HepG-2 and HuH-7) obtained from the American Type Culture Collection.

[2] = tested on: HepG-2 liver cancer cell line; assay: Anti-proliferative activity (MTT / SRB assay), HepG-2; format: cell-based, human; settings: Homo sapiens, HepG2; HepG-2; mean of three separate experiments
Experimental: as §1

| Compound | IC50 [1] | IC50 [2] |
| --- | --- | --- |
| COc1nc2ccccc2nc1NN=Cc1ccc(N(C)C)cc1 [Compound 10 i, 4-((2-(3-Methoxyquinoxalin-2-yl)hydrazono)methyl)-N,N-dimethylaniline] | 22.7 µM | 23 µM |
| Clc1cccc(Cl)c1C=NNc1nc2ccccc2nc1Cl [Compound 6 e, 2-Chloro-3-(2-(2,6-dichlorobenzylidene)hydrazinyl)quinoxaline] | 17.5 µM | 13.5 µM |
| COc1cccc2c1C(=O)c1c(O)c3c(c(O)c1C2=O)C[C@@](O)(C(=O)CO)C[C@@H]3O[C@H]1C[C@H](N)[C@H](O)[C@H](C)O1 [Doxorubicin, reference compound] | 9.2 ± 0.65 µM | 8.25 µM |
| COc1ccc(C=NNc2nc3ccccc3nc2OC)cc1OC [Compound 10 e, 2-(2-(3,4-Dimethoxybenzylidene)hydrazinyl)-3-methoxyquinoxaline] | 50.6 µM | 55.7 µM |
| Clc1nc2ccccc2nc1NN=Cc1ccccc1 [Compound 6 a, 2-(2-Benzylidenehydrazinyl)-3-chloroquinoxaline] | 18.2 µM | 14.3 µM |
| COc1nc2ccccc2nc1NN=Cc1ccc(Cl)cc1 [Compound 10 a, 2-(2-(4-Chlorobenzylidene)hydrazinyl)-3-methoxyquinoxaline] | 57.8 µM | 53.9 µM |
| Clc1ccccc1C=NNc1nc2ccccc2nc1Cl [Compound 6 b, 2-Chloro-3-(2-(2-chlorobenzylidene)hydrazinyl)quinoxaline] | 18.7 µM | 15.8 µM |
| COc1nc2ccccc2nc1NN=Cc1c(Cl)cccc1Cl [Compound 10 c, 2-(2-(2,6-Dichlorobenzylidene)hydrazinyl)-3-methoxyquinoxaline] | 65.3 µM | 60.5 µM |
| COc1nc2ccccc2nc1NN=Cc1ccc([N+](=O)[O-])cc1 [Compound 10 g, 2-Methoxy-3-(2-(4-nitrobenzylidene)hydrazinyl)quinoxaline] | 19.1 µM | 13 µM |
| COc1nc2ccccc2nc1NN=Cc1ccc(Cl)cc1Cl [Compound 10 b, 2-(2-(2,4-Dichlorobenzylidene)hydrazinyl)-3-methoxyquinoxaline] | 35.2 µM | 32.1 µM |
| CC(=NNc1nc2ccccc2nc1Cl)c1ccccc1 [Compound 7 a, 2-Chloro-3-(2-(1-phenylethylidene)hydrazinyl)quinoxaline] | 37.1 µM | 28.5 µM |
| COc1ccccc1C=NNc1nc2ccccc2nc1OC [Compound 10 d, 2-Methoxy-3-(2-(2-methoxybenzylidene)hydrazinyl)quinoxaline] | 27.3 µM | 28.6 µM |
| O=[N+]([O-])c1cccc(C=NNc2nc3ccccc3nc2Cl)c1 [Compound 6 i, 2-Chloro-3-(2-(3-nitrobenzylidene)hydrazinyl)quinoxaline] | 65.7 µM | 63.9 µM |
| COc1cc(C=NNc2nc3ccccc3nc2OC)cc(OC)c1OC [Compound 10 f, 2-Methoxy-3-(2-(3,4,5-trimethoxybenzylidene)hydrazinyl)quinoxaline] | 48.8 µM | 56.9 µM |
| COc1cc(C=NNc2nc3ccccc3nc2Cl)cc(OC)c1OC [Compound 6 h, 2-Chloro-3-(2-(3,4,5-trimethoxybenzylidene)hydrazinyl)quinoxaline] | 14.7 µM | 11.8 µM |
| O=[N+]([O-])c1ccc(C=NNc2nc3ccccc3nc2Cl)cc1 [Compound 6 j, 2-Chloro-3-(2-(4-nitrobenzylidene)hydrazinyl)quinoxaline] | 25.8 µM | 15.9 µM |
